Data taken from patent US8501800B2, “Controlled-release ophthalmic vehicles” (Insite Vision Incorporated, priority 2009, dated 2013).

Assay: Release of fluorometholone in the rabbit eye, measured in aqueous humor
Assay type: in vivo
Details: measured by fluorometholone contained in the aqueous humor
Protocol: The viscous gels that result upon administration of the aqueous suspensions of this invention to the eye have residence times in the eye ranging from about 2 to about 12 hours, e.g., from about 3 to about 6 hours. The active ingredients contained in these ophthalmically acceptable vehicles are released from the gels at rates that depend on such factors as the active ingredient itself and its physical form, the extent of drug loading and the pH of the system, as well as on any drug delivery adjuvants, such as ion exchange resins compatible with the ocular surface, which can also be present.

CC(=O)[C@@]1(O)CC[C@H]2[C@@H]3C[C@H](C)C4=CC(=O)C=C[C@]4(C)[C@@]3(F)[C@@H](O)C[C@@]21C [fluorometholone]
Release rates in the rabbit eye: in excess of four hours
